Laboratory results: publication PMC12670405, “Second-Generation AURKA-Targeting PROTACs: Structural Optimization toward in Vivo Degradation in Neuroblastoma” (Journal of Medicinal Chemistry, 2025)

Experiments:
Test in all cases: KINOMEscan scanMAX
Assay type in all cases: binding
CDC2L2 = molecular target: T1, CDC2L2 (Homo sapiens, UniProt Q9UQ88); settings: read-out: Percent Control
T1 construct: purchased Eurofins Discovery (DiscoverX KINOMEscan scanMAX)
Experimental: (§1) The kinome-wide binding assay was performed by Eurofins Discovery using the scanMAX screening platform. More information can be found on the Eurofins Discovery Web site.

GCN2(Kin.Dom.2,S808G) = molecular target: T2, GCN2(Kin.Dom.2,S808G) (Homo sapiens, UniProt Q9P2K8, S808G); settings: read-out: Percent Control
T2 construct: GCN2(Kin.Dom.2,S808G); purchased Eurofins Discovery (DiscoverX KINOMEscan scanMAX)
Experimental: as §1

TXK = molecular target: T3, TXK (Homo sapiens, UniProt P42681); settings: read-out: Percent Control
T3 construct: purchased Eurofins Discovery (DiscoverX KINOMEscan scanMAX)
Experimental: as §1

[1] = molecular target: T4, JAK2(JH1domain-catalytic) (Homo sapiens, UniProt O60674); settings: read-out: Percent Control
T4 construct: JAK2(JH1domain-catalytic); purchased Eurofins Discovery (DiscoverX KINOMEscan scanMAX)
Experimental: as §1

MLCK = molecular target: T5, MLCK (Homo sapiens, UniProt Q32MK0); settings: read-out: Percent Control
T5 construct: purchased Eurofins Discovery (DiscoverX KINOMEscan scanMAX)
Experimental: as §1

CSNK2A1 = molecular target: T6, CSNK2A1 (Homo sapiens, UniProt P68400); settings: read-out: Percent Control
T6 construct: purchased Eurofins Discovery (DiscoverX KINOMEscan scanMAX)
Experimental: as §1

ULK2 = molecular target: T7, ULK2 (Homo sapiens, UniProt Q8IYT8); settings: read-out: Percent Control
T7 construct: purchased Eurofins Discovery (DiscoverX KINOMEscan scanMAX)
Experimental: as §1

ARK5 = molecular target: T8, ARK5 (Homo sapiens, UniProt O60285); settings: read-out: Percent Control
T8 construct: purchased Eurofins Discovery (DiscoverX KINOMEscan scanMAX)
Experimental: as §1

MST1 = molecular target: T9, MST1 (Homo sapiens, UniProt Q13043); settings: read-out: Percent Control
T9 construct: purchased Eurofins Discovery (DiscoverX KINOMEscan scanMAX)
Experimental: as §1

MLK3 = molecular target: T10, MLK3 (Homo sapiens, UniProt Q16584); settings: read-out: Percent Control
T10 construct: purchased Eurofins Discovery (DiscoverX KINOMEscan scanMAX)
Experimental: as §1

EGFR(L747-T751del,Sins) = system: EGFR(L747-T751del,Sins)
Experimental: as §1

KIT(D816H) = molecular target: T11, KIT(D816H) (Homo sapiens, UniProt P10721, D816H); settings: read-out: Percent Control
T11 construct: purchased Eurofins Discovery (DiscoverX KINOMEscan scanMAX)
Experimental: as §1

ACVR2B = molecular target: T12, ACVR2B (Homo sapiens, UniProt Q13705); settings: read-out: Percent Control
T12 construct: purchased Eurofins Discovery (DiscoverX KINOMEscan scanMAX)
Experimental: as §1

NEK5 = molecular target: T13, NEK5 (Homo sapiens, UniProt Q6P3R8); settings: read-out: Percent Control
T13 construct: purchased Eurofins Discovery (DiscoverX KINOMEscan scanMAX)
Experimental: as §1

PFTK1 = molecular target: T14, PFTK1 (Homo sapiens, UniProt O94921); settings: read-out: Percent Control
T14 construct: purchased Eurofins Discovery (DiscoverX KINOMEscan scanMAX)
Experimental: as §1

CLK4 = molecular target: T15, CLK4 (Homo sapiens, UniProt Q9HAZ1); settings: read-out: Percent Control
T15 construct: purchased Eurofins Discovery (DiscoverX KINOMEscan scanMAX)
Experimental: as §1

CAMKK2 = molecular target: T16, CAMKK2 (Homo sapiens, UniProt Q96RR4); settings: read-out: Percent Control
T16 construct: purchased Eurofins Discovery (DiscoverX KINOMEscan scanMAX)
Experimental: as §1

ICK = molecular target: T17, ICK (Homo sapiens, UniProt Q9UPZ9); settings: read-out: Percent Control
T17 construct: purchased Eurofins Discovery (DiscoverX KINOMEscan scanMAX)
Experimental: as §1

CAMK2B = molecular target: T18, CAMK2B (Homo sapiens, UniProt Q13554); settings: read-out: Percent Control
T18 construct: purchased Eurofins Discovery (DiscoverX KINOMEscan scanMAX)
Experimental: as §1

MLK2 = molecular target: T19, MLK2 (Homo sapiens, UniProt Q02779); settings: read-out: Percent Control
T19 construct: purchased Eurofins Discovery (DiscoverX KINOMEscan scanMAX)
Experimental: as §1

PIK3CA(E545K) = molecular target: T20, PIK3CA(E545K) (Homo sapiens, UniProt P42336, E545K); settings: read-out: Percent Control
T20 construct: purchased Eurofins Discovery (DiscoverX KINOMEscan scanMAX)
Experimental: as §1

PIM1 = molecular target: T21, PIM1 (Homo sapiens, UniProt P11309); settings: read-out: Percent Control
T21 construct: purchased Eurofins Discovery (DiscoverX KINOMEscan scanMAX)
Experimental: as §1

MARK3 = molecular target: T22, MARK3 (Homo sapiens, UniProt P27448); settings: read-out: Percent Control
T22 construct: purchased Eurofins Discovery (DiscoverX KINOMEscan scanMAX)
Experimental: as §1

LRRK2 = molecular target: T23, LRRK2 (Homo sapiens, UniProt Q5S007); settings: read-out: Percent Control
T23 construct: purchased Eurofins Discovery (DiscoverX KINOMEscan scanMAX)
Experimental: as §1

HIPK2 = molecular target: T24, HIPK2 (Homo sapiens, UniProt Q9H2X6); settings: read-out: Percent Control
T24 construct: purchased Eurofins Discovery (DiscoverX KINOMEscan scanMAX)
Experimental: as §1

SRMS = molecular target: T25, SRMS (Homo sapiens, UniProt Q9H3Y6); settings: read-out: Percent Control
T25 construct: purchased Eurofins Discovery (DiscoverX KINOMEscan scanMAX)
Experimental: as §1

SRPK1 = molecular target: T26, SRPK1 (Homo sapiens, UniProt Q96SB4); settings: read-out: Percent Control
T26 construct: purchased Eurofins Discovery (DiscoverX KINOMEscan scanMAX)
Experimental: as §1

TEC = molecular target: T27, TEC (Homo sapiens, UniProt P42680); settings: read-out: Percent Control
T27 construct: purchased Eurofins Discovery (DiscoverX KINOMEscan scanMAX)
Experimental: as §1

PRKCE = molecular target: T28, PRKCE (Homo sapiens, UniProt Q02156); settings: read-out: Percent Control
T28 construct: purchased Eurofins Discovery (DiscoverX KINOMEscan scanMAX)
Experimental: as §1

[2] = molecular target: T29, ABL1(Q252H)-phosphorylated (Homo sapiens, UniProt P00519, Q252H); settings: read-out: Percent Control
T29 construct: purchased Eurofins Discovery (DiscoverX KINOMEscan scanMAX)
Experimental: as §1

TBK1 = molecular target: T30, TBK1 (Homo sapiens, UniProt Q9UHD2); settings: read-out: Percent Control
T30 construct: purchased Eurofins Discovery (DiscoverX KINOMEscan scanMAX)
Experimental: as §1

MYLK4 = molecular target: T31, MYLK4 (Homo sapiens, UniProt Q86YV6); settings: read-out: Percent Control
T31 construct: purchased Eurofins Discovery (DiscoverX KINOMEscan scanMAX)
Experimental: as §1

PLK2 = molecular target: T32, PLK2 (Homo sapiens, UniProt Q9NYY3); settings: read-out: Percent Control
T32 construct: purchased Eurofins Discovery (DiscoverX KINOMEscan scanMAX)
Experimental: as §1

T21 sequence (P11309 whole entry): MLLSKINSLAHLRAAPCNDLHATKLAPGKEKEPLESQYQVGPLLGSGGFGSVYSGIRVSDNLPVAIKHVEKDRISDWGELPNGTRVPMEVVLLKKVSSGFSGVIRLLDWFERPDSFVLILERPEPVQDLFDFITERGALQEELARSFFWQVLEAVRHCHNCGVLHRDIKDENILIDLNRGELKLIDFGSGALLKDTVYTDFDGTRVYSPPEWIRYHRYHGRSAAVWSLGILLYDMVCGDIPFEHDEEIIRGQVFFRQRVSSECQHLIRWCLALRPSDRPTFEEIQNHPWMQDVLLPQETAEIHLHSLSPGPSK
T14 sequence (O94921 whole entry): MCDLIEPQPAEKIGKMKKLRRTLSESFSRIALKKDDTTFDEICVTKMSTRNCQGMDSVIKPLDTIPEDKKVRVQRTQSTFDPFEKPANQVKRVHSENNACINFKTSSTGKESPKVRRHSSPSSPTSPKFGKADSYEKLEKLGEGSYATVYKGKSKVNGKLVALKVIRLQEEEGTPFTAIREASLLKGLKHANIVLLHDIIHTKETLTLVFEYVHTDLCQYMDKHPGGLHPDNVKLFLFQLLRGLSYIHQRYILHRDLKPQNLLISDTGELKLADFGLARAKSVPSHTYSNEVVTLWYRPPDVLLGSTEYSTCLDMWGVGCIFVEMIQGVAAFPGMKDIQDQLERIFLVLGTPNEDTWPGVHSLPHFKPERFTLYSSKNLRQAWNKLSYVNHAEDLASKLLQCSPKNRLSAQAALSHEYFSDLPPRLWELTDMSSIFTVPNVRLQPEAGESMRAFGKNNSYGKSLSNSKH
T1 sequence (Q9UQ88 whole entry): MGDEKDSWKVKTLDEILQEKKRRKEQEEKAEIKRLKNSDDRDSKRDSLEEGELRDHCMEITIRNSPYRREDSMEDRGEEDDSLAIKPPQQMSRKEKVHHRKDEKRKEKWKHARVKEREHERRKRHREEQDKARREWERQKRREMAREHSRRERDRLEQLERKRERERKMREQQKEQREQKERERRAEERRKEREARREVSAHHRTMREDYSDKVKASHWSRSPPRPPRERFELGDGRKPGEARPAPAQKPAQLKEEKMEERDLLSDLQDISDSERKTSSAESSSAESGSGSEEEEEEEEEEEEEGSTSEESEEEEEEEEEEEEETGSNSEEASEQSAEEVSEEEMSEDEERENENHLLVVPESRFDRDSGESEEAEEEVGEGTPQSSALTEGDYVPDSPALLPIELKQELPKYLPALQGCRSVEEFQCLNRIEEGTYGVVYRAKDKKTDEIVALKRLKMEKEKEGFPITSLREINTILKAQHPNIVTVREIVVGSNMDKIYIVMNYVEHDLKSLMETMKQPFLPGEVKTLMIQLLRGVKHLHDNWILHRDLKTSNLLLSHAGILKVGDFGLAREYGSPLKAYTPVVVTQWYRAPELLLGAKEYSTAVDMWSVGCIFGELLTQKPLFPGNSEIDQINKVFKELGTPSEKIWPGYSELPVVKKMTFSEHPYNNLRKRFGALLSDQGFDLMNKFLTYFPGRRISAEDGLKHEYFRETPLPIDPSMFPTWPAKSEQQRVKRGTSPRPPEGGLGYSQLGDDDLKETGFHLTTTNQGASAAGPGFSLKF
T2 sequence (Q9P2K8 590-1001 S808G limits assumed): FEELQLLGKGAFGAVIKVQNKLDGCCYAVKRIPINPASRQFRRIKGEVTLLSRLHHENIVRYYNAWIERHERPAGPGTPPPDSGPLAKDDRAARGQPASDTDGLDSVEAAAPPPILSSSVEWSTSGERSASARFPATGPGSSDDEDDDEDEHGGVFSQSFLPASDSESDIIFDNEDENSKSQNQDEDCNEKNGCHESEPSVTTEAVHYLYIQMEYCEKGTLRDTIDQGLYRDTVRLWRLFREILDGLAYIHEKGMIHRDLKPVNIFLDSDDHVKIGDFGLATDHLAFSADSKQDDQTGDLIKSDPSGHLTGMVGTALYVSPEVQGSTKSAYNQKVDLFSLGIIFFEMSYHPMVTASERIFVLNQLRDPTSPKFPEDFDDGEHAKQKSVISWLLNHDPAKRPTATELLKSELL
T16 sequence (Q96RR4 whole entry): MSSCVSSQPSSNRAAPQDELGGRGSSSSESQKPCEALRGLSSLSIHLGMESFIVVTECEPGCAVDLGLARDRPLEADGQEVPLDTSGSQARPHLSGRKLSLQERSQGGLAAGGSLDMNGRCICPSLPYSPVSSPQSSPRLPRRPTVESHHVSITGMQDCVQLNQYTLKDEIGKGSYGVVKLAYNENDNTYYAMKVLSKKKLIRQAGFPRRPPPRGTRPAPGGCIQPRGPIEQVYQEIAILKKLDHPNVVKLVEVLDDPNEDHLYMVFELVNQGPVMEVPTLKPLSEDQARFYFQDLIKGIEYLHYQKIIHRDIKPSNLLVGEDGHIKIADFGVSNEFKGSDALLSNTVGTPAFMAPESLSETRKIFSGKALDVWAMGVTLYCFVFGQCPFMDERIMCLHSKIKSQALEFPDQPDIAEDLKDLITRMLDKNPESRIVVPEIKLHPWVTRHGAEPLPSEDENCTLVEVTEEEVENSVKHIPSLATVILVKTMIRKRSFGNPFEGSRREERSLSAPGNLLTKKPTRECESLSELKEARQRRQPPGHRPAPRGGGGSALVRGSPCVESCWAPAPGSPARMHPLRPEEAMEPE
T27 sequence (P42680 whole entry): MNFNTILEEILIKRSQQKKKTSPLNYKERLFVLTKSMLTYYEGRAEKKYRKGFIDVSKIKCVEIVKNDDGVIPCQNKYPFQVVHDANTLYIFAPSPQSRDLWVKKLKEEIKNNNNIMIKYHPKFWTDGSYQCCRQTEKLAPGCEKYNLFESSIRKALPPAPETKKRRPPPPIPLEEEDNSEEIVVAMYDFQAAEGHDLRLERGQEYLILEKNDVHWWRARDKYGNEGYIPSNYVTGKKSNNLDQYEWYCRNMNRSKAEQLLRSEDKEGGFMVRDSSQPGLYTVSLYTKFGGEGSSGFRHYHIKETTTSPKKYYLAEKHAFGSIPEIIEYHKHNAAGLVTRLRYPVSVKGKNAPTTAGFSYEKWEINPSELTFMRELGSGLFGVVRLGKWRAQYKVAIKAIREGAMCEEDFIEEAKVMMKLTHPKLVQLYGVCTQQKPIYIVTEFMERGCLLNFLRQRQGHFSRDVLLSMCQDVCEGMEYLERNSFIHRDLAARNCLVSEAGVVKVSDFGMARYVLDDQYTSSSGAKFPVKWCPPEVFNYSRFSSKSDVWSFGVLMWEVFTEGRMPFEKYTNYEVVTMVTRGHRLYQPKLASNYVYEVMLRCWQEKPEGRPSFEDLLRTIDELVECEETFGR
T11 sequence (P10721 26-976 D816H): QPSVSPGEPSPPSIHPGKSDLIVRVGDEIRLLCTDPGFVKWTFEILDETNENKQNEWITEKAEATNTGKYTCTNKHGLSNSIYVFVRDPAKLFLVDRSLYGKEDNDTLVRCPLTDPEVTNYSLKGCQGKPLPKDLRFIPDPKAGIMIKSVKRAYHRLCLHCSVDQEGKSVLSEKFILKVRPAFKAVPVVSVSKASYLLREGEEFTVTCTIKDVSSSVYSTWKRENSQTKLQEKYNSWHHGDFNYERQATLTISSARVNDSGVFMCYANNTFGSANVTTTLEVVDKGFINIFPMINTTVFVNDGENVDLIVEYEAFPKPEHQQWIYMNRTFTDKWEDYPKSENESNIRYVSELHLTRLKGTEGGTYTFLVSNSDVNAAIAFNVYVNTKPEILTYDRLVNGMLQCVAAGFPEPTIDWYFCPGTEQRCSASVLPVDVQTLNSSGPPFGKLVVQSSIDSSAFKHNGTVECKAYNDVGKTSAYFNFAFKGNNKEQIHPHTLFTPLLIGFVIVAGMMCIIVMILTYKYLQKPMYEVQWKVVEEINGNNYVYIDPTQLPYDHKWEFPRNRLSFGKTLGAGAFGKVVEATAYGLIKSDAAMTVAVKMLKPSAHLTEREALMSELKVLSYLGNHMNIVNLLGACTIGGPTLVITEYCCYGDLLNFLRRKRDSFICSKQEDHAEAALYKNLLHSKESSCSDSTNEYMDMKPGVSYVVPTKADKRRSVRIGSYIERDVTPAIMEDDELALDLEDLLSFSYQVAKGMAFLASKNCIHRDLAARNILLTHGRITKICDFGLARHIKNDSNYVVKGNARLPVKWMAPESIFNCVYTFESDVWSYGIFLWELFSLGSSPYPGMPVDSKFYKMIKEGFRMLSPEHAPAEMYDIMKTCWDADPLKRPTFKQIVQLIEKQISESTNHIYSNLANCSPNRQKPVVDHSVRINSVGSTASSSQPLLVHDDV
T8 sequence (O60285 whole entry): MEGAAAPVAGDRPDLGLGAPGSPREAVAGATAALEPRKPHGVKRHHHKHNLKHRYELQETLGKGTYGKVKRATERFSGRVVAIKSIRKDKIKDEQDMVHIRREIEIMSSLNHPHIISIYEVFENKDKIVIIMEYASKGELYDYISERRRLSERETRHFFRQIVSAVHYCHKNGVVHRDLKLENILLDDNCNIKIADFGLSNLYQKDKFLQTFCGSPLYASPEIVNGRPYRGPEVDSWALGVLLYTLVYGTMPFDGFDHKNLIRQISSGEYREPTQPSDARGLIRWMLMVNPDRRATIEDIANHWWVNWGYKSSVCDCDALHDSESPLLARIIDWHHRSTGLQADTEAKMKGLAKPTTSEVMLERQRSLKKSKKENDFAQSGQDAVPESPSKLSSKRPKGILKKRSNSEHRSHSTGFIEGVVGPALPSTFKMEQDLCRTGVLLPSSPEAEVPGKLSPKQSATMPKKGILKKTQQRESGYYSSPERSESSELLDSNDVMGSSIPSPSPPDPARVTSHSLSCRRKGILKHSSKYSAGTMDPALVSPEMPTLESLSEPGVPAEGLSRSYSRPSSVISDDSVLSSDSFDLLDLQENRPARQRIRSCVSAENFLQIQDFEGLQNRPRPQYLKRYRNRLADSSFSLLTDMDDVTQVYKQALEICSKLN

## Cc1cc(Nc2ccc(F)c(CC3(C(=O)N4CCC(F)(CN5CCN(c6ccc(N7CCC(=O)NC7=O)cn6)CC5)CC4)CCN(Cc4cccc(Cl)c4F)CC3)n2)n[nH]1 [SK5527]
CDC2L2; 100 nM
  remaining binding at 0.1 µM: 99%
CDC2L2; 1000 nM
  remaining binding at 1 µM: 98%
GCN2(Kin.Dom.2,S808G); 100 nM
  remaining binding at 0.1 µM: 98%
GCN2(Kin.Dom.2,S808G); 1000 nM
  remaining binding at 1 µM: 100%
TXK; 100 nM
  remaining binding at 0.1 µM: 75%
TXK; 1000 nM
  remaining binding at 1 µM: 78%
[1]; 100 nM
  remaining binding at 0.1 µM: 91%
[1]; 1000 nM
  remaining binding at 1 µM: 65%
MLCK; 100 nM
  remaining binding at 0.1 µM: 100%
MLCK; 1000 nM
  remaining binding at 1 µM: 0%
CSNK2A1; 100 nM
  remaining binding at 0.1 µM: 90%
CSNK2A1; 1000 nM
  remaining binding at 1 µM: 69%
ULK2; 100 nM
  remaining binding at 0.1 µM: 89%
ULK2; 1000 nM
  remaining binding at 1 µM: 78%
ARK5; 100 nM
  remaining binding at 0.1 µM: 83%
ARK5; 1000 nM
  remaining binding at 1 µM: 90%
MST1; 100 nM
  remaining binding at 0.1 µM: 100%
MST1; 1000 nM
  remaining binding at 1 µM: 100%
MLK3; 100 nM
  remaining binding at 0.1 µM: 85%
MLK3; 1000 nM
  remaining binding at 1 µM: 100%
EGFR(L747-T751del,Sins); 100 nM
  Percent Control: 83%
EGFR(L747-T751del,Sins); 1000 nM
  Percent Control: 74%
KIT(D816H); 100 nM
  remaining binding at 0.1 µM: 100%
KIT(D816H); 1000 nM
  remaining binding at 1 µM: 100%
ACVR2B; 100 nM
  remaining binding at 0.1 µM: 100%
ACVR2B; 1000 nM
  remaining binding at 1 µM: 87%
NEK5; 100 nM
  remaining binding at 0.1 µM: 100%
NEK5; 1000 nM
  remaining binding at 1 µM: 100%
PFTK1; 100 nM
  remaining binding at 0.1 µM: 100%
PFTK1; 1000 nM
  remaining binding at 1 µM: 95%
CLK4; 100 nM
  remaining binding at 0.1 µM: 85%
CLK4; 1000 nM
  remaining binding at 1 µM: 100%
CAMKK2; 100 nM
  remaining binding at 0.1 µM: 100%
CAMKK2; 1000 nM
  remaining binding at 1 µM: 100%
ICK; 100 nM
  remaining binding at 0.1 µM: 92%
ICK; 1000 nM
  remaining binding at 1 µM: 48%
CAMK2B; 100 nM
  remaining binding at 0.1 µM: 100%
CAMK2B; 1000 nM
  remaining binding at 1 µM: 100%
MLK2; 100 nM
  remaining binding at 0.1 µM: 100%
MLK2; 1000 nM
  remaining binding at 1 µM: 100%
PIK3CA(E545K); 100 nM
  remaining binding at 0.1 µM: 93%
PIK3CA(E545K); 1000 nM
  remaining binding at 1 µM: 71%
PIM1; 100 nM
  remaining binding at 0.1 µM: 100%
PIM1; 1000 nM
  remaining binding at 1 µM: 99%
MARK3; 100 nM
  remaining binding at 0.1 µM: 100%
MARK3; 1000 nM
  remaining binding at 1 µM: 87%
LRRK2; 100 nM
  remaining binding at 0.1 µM: 100%
LRRK2; 1000 nM
  remaining binding at 1 µM: 94%
HIPK2; 100 nM
  remaining binding at 0.1 µM: 100%
HIPK2; 1000 nM
  remaining binding at 1 µM: 91%
SRMS; 100 nM
  remaining binding at 0.1 µM: 90%
SRMS; 1000 nM
  remaining binding at 1 µM: 82%
SRPK1; 100 nM
  remaining binding at 0.1 µM: 93%
SRPK1; 1000 nM
  remaining binding at 1 µM: 100%
TEC; 100 nM
  remaining binding at 0.1 µM: 91%
TEC; 1000 nM
  remaining binding at 1 µM: 69%
PRKCE; 100 nM
  remaining binding at 0.1 µM: 100%
PRKCE; 1000 nM
  remaining binding at 1 µM: 95%
[2]; 100 nM
  remaining binding at 0.1 µM: 68%
[2]; 1000 nM
  remaining binding at 1 µM: 44%
TBK1; 100 nM
  remaining binding at 0.1 µM: 99%
TBK1; 1000 nM
  remaining binding at 1 µM: 85%
MYLK4; 100 nM
  remaining binding at 0.1 µM: 100%
MYLK4; 1000 nM
  remaining binding at 1 µM: 100%
PLK2; 100 nM
  remaining binding at 0.1 µM: 100%
PLK2; 1000 nM
  remaining binding at 1 µM: 87%
